One data set addresses T1, Nluc-FZD6 (Homo sapiens, UniProt O60353).
T1 construct: expressed in transfected cells; host or cells: ΔSMO HEK293A or ΔFZD1–10 HEK293T cells (screen); ΔFZD1–10 HEK293T cells (concentration–response curves)
T1 sequence (O60353 19-706): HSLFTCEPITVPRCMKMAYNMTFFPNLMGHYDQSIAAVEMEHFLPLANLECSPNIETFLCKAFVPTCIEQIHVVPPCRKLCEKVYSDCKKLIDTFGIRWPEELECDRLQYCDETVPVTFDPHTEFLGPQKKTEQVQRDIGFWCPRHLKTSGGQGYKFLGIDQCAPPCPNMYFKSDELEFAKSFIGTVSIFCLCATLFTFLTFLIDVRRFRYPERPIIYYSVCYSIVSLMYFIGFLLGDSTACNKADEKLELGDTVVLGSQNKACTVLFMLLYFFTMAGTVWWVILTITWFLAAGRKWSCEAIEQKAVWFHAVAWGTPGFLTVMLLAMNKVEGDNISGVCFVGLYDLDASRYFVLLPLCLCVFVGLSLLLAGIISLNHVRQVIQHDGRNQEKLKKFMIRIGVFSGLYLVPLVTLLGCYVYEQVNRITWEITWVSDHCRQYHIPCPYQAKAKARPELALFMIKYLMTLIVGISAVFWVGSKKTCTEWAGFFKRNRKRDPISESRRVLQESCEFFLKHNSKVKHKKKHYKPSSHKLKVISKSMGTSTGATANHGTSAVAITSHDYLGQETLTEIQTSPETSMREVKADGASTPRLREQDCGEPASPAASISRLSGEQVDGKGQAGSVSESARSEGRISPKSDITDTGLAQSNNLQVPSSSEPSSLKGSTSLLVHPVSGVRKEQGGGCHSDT
In words: BRET-based BODIPY-cyclopamine competition binding at Nluc-FZD6 in live HEK293 cells. As to conditions: for Displacement @ 10 µM compound (Nluc-FZD6) ΔBRET / Displacement %: BODIPY-cyclopamine 300 nM, 10 µM compound. The method, then:
After 24 h, cells were washed once with Hanks' balanced salt solution (HBSS), followed by the addition of 80 μl of HBSS. Next, 10 μl of the competitive ligand, that is, the tested SAG1.3 derivative (either in different concentrations for the concentration–response curves or at a final concentration of 10 μM for the first screens) and 10 μl of the fluorescent tracer BODIPY–cyclopamine (final concentration: 300 nM for the first screens, 200 nM for the concentration–response experiments) were added. All serial dilutions were prepared in HBSS. The cells were incubated for 90 min at 37 °C without additional CO2, after which 10 μl of luciferase substrate diluted in HBSS (furimazine; Promega, N1572, final dilution: 1:1000 for first screening) and coelenterazine h (Biosynth; final concentration: 5 μM for concentration–response experiments) were added to the cells. Following a 10 min incubation period in the dark, the measurement was started on a BMG Labtech ClarioStar or TECAN Spark multimode microplate reader, prewarmed to 37 °C. Nluc bioluminescence was detected between 460 and 490 nm (ClarioStar) or 460 and 500 nm (TECAN Spark). The emission of the fluorescent tracer was detected between 520 and 550 nm (ClarioStar) or between 520 and 560 nm (TECAN Spark).
For each binding experiment, the measurement was repeated five times and averaged for the analysis. ΔBRET values were obtained by subtracting the BRET ratio obtained in wells containing BODIPY–cyclopamine but no competitive ligand (100% value). The BRET values for full displacement were defined using “donor-only” control wells, which contained Nluc-FZDx-transfected cells but no BODIPY–cyclopamine.
For the full concentration–response BRET binding curves in Figure 2, BRET values were normalized (separately for each experiment) to control wells containing BODIPY–cyclopamine but no competitive ligand (100% value) and “donor-only” wells (0% value, described previously). […] Obtained IC50 values were transformed to pIC50 values, which were subsequently averaged between experiments. Displacement curves showing the non-normalized data (ΔBRET values generated as described previously) can be found in Fig. S2.
Shown are mean values and SDs from N independent experiments (N = 2-8) performed in duplicate.
Shown are mean values ± SEM from N independent experiments performed in triplicate.

The test system of the next data set is FZD6. Details: method as in PMID 31964872, PMID 34168128. The settings on record: ref [18], [24]; cited from earlier work.
On the set-up of data set [1]: method as in PMID 31338636, PMID 32803633. The settings on record: ref [14], [54]; cited from earlier work.
[2] abbreviates: BMG Labtech ClarioStar reader (complete tracer displacement: net BRET = -0.02736).
Setting [3] is: TECAN Spark reader (complete tracer displacement: net BRET = -0.03823).
Setting [4] is: BODIPY-cyclopamine 200 nM, ΔFZD1-10 HEK293T cells.

Take `CN[C@H]1CC[C@H](N(Cc2cccc(-c3ccncc3)c2)C(=O)c2sc3ccccc3c2Cl)CC1.Cl.Cl` [SAG1.3, 3-chloro-N-[trans-4-(methylamino)cyclohexyl]-N-[[3-(4-pyridinyl)phenyl]methyl]-benzo[b]thiophene-2-carboxamide dihydrochloride]: the figures for the “Displacement @ 10 µM compound (Nluc-FZD6) ΔBRET” value on Nluc-FZD6 (setting [2]) and on Nluc-FZD6 (setting [3]) were -0.0099 and -0.0148, respectively. For the same molecule, the Displacement % is 36.1% on Nluc-FZD6 (ClarioStar reader) and 38.7% on Nluc-FZD6 (TECAN Spark reader). The “Efficacy at FZD6” value in the data set with FZD6 is listed as “very low efficacy”. In the data set on FZD6, the “Potency at FZD6” value is on record as “double-digit micromolar potency”.

`Nc1ccc(C(=O)N[C@H]2CC[C@H](N(Cc3cccc(-c4ccncc4)c3)C(=O)c3sc4ccccc4c3Cl)CC2)nn1` [compound 23, 6-Amino-N-((1r,4r)-4-(3-chloro-N-(3-(pyridin-4-yl)benzyl)benzo[b]thiophene-2-carboxamido)cyclohexyl)pyridazine-3-carboxamide] came in with a Displacement % on Nluc-FZD6 (TECAN Spark reader) of 85.8%. Moreover, the “Displacement @ 10 µM compound (Nluc-FZD6) ΔBRET” value at Nluc-FZD6 (setting [3]) is -0.0328. In addition, at Nluc-FZD6 (setting [4]), the “pIC50 (Nluc-FZD6) mean ± SEM” value was determined as 5.54 ± 0.03.

At Nluc-FZD6 (TECAN Spark reader), `CC(C)C(=O)Nc1cccc(C(=O)N[C@H]2CC[C@H](N(Cc3cccc(-c4ccncc4)c3)C(=O)c3sc4ccccc4c3Cl)CC2)c1` [compound 15, 3-Chloro-N-((1r,4r)-4-(3-isobutyramidobenzamido)cyclohexyl)-N-(3-(pyridin-4-yl)benzyl)benzo[b]thiophene-2-carboxamide] had a Displacement % of 70.1%. In addition, the “Displacement @ 10 µM compound (Nluc-FZD6) ΔBRET” value on Nluc-FZD6 (setting [3]) is given as -0.0268. Moreover, the “pIC50 (Nluc-FZD6) mean ± SEM” value on Nluc-FZD6 (setting [4]) was 5.13 ± 0.16.

On to `O=C(N[C@H]1CC[C@H](N(Cc2cccc(-c3ccncc3)c2)C(=O)c2sc3ccccc3c2Cl)CC1)c1ccco1` [compound 10], for which the “Displacement @ 10 µM compound (Nluc-FZD6) ΔBRET” value on Nluc-FZD6 (setting [2]) is listed as -0.0207. The molecule also displayed a Displacement % at Nluc-FZD6 (ClarioStar reader) of 75.5%. Besides, on Nluc-FZD6 (setting [4]), the “pIC50 (Nluc-FZD6) mean ± SEM” value is listed as 5.29 ± 0.02.

`CN1CCN(CC(=O)Nc2cccc(C(=O)N[C@H]3CC[C@H](N(Cc4cccc(-c5ccncc5)c4)C(=O)c4sc5ccccc5c4Cl)CC3)c2)CC1` [compound 18, 3-Chloro-N-((1r,4r)-4-(3-(2-(4-methylpiperazin-1-yl)acetamido)benzamido)cyclohexyl)-N-(3-(pyridin-4-yl)benzyl)benzo[b]thiophene-2-carboxamide] gave a Displacement % on Nluc-FZD6 (TECAN Spark reader) of 81.1%. In addition, the “Displacement @ 10 µM compound (Nluc-FZD6) ΔBRET” value on Nluc-FZD6 (setting [3]) was -0.0310. Besides, the “pIC50 (Nluc-FZD6) mean ± SEM” value on Nluc-FZD6 (setting [4]) amounted to 5.50 ± 0.04.

At Nluc-FZD6 (TECAN Spark reader), `O=C(CN1CCOCC1)Nc1cccc(C(=O)N[C@H]2CC[C@H](N(Cc3cccc(-c4ccncc4)c3)C(=O)c3sc4ccccc4c3Cl)CC2)c1` [compound 19, 3-Chloro-N-((1r,4r)-4-(3-(2-morpholinoacetamido)benzamido)cyclohexyl)-N-(3-(pyridin-4-yl)benzyl)benzo[b]thiophene-2-carboxamide] yielded a Displacement % of 87.6%. For the same molecule, the “Displacement @ 10 µM compound (Nluc-FZD6) ΔBRET” value at Nluc-FZD6 (setting [3]) is on record as -0.0335. In addition, the “pIC50 (Nluc-FZD6) mean ± SEM” value on Nluc-FZD6 (setting [4]) was 5.71 ± 0.04.

Molecule `CN1CCC(C(=O)Nc2cccc(C(=O)N[C@H]3CC[C@H](N(Cc4cccc(-c5ccncc5)c4)C(=O)c4sc5ccccc5c4Cl)CC3)c2)CC1` [compound 17, N-(3-(((1r,4r)-4-(3-Chloro-N-(3-(pyridin-4-yl)benzyl)benzo[b]thiophene-2-carboxamido)cyclohexyl)-carbamoyl)phenyl)-1-methylpiperidine-4-carboxamide] registered a Displacement % at Nluc-FZD6 (TECAN Spark reader) of 73.6%. Further, the “Displacement @ 10 µM compound (Nluc-FZD6) ΔBRET” value at Nluc-FZD6 (setting [3]) is -0.0281. Besides, the “pIC50 (Nluc-FZD6) mean ± SEM” value on Nluc-FZD6 (setting [4]) came to 5.49 ± 0.04.

At Nluc-FZD6 (TECAN Spark reader), `CCC(=O)Nc1cccc(C(=O)N[C@H]2CC[C@H](N(Cc3cccc(-c4ccncc4)c3)C(=O)c3sc4ccccc4c3Cl)CC2)c1` [compound 14, 3-Chloro-N-((1r,4r)-4-(3-propionamidobenzamido)cyclohexyl)-N-(3-(pyridin-4-yl)benzyl)benzo[b]thiophene-2-carboxamide] displayed a Displacement % of 75.9%. Besides, the “Displacement @ 10 µM compound (Nluc-FZD6) ΔBRET” value on Nluc-FZD6 (setting [3]) is listed as -0.0290. Moreover, the “pIC50 (Nluc-FZD6) mean ± SEM” value at Nluc-FZD6 (setting [4]) was 5.57 ± 0.17.

`O=C(N[C@H]1CC[C@H](N(Cc2cccc(-c3ccncc3)c2)C(=O)c2sc3ccccc3c2Cl)CC1)c1ccncc1Cl` [compound 21, 3-Chloro-N-((1r,4r)-4-(3-chloro-N-(3-(pyridin-4-yl)benzyl)benzo[b]thiophene-2-carboxamido)cyclohexyl)isonicotinamide] had a Displacement % at Nluc-FZD6 (TECAN Spark reader) of 78.2%. Further, the “Displacement @ 10 µM compound (Nluc-FZD6) ΔBRET” value on Nluc-FZD6 (setting [3]) is on record as -0.0299. At Nluc-FZD6 (setting [4]), the “pIC50 (Nluc-FZD6) mean ± SEM” value is recorded as 5.44 ± 0.05.

On to `O=C(NC1CCC(N(Cc2ccc(-c3cccnc3)cc2)C(=O)c2sc3ccccc3c2Cl)CC1)c1ccco1` (stereo not shown) [compound 52, N-(4-(3-Chloro-N-(4-(pyridin-3-yl)benzyl)benzo[b]thiophene-2-carboxamido)cyclohexyl)furan-2-carboxamide], for which the “Displacement @ 10 µM compound (Nluc-FZD6) ΔBRET” value at Nluc-FZD6 (setting [2]) was -0.0194. The Displacement % on Nluc-FZD6 (ClarioStar reader) was 70.9%. Also, on Nluc-FZD6 (BODIPY-cyclopamine 200 nM, ΔFZD1-10 HEK293T cells, read-out: pIC50 (Nluc-FZD6) mean ± SEM (converted)), the IC50 is 8.71 µM.

B1: vantictumab: monoclonal antibody binding to five of 10 FZD paralogs (antibody, chains of the INN, looked up, V domains shown)
VH: EVQLVESGGGLVQPGGSLRLSCAASGFTFSHYTLSWVRQAPGKGLEWVSVISGDGSYTYYADSVKGRFTISSDNSKNTLYLQMNSLRAEDTAVYYCARNFIKYVFANWGQGTLVTVSS
VL: DIELTQPPSVSVAPGQTARISCSGDNIGSFYVHWYQQKPGQAPVLVIYDKSNRPSGIPERFSGSNSGNTATLTISGTQAEDEADYYCQSYANTLSLVFGGGTKLTVL
In the case of B1, the “Reason for dismissal in phase Ib clinical trials” value in data set [1] was “bone toxicity”.

These data come from article PMC12605013, “SAG1.3-derived Frizzled-targeting small-molecule compounds” (The Journal of Biological Chemistry, 2025).
